Consider 25 molecules from US20250066359A1, “SOMATOSTATIN RECEPTOR SUBTYPE 5 ANTAGONISTS, AND PHARMACEUTICAL COMPOSITION AND USE THEREOF” (SHANGHAI INSTITUTE OF MATERIA MEDICA, CHINESE ACADEMY OF …, priority 2021, published 2025).

As usually defined, the IC50 is the concentration needed to halve the response being measured.

One assay has as its target T1, hSSTR5 (Homo sapiens, UniProt P35346).
T1 construct: expressed in transfected cells; host or cells: CHO cells co-expressing Gα16 (hSSTR5-CHO-Gα16)
The assay can be described thus: SSTR5 antagonistic activity in vitro by calcium flow detection (hSSTR5-CHO-Gα16 cells). It is filed as cell-based. The following applies: for IC50: hSSTR5-CHO-Gα16 cells, 100 nM Somatostatin-14 agonist, Fluo-4 fluorescence 525 nm; for SSTR5 antagonistic activity (in words): summary of Table 1. From the text: (§1) Testing SSTR5 antagonistic activity in vitro by Calcium flow detection method Experimental principle: After the receptor binds to the ligand and is activated, it can cause the activation of Gα16 protein, which further activates phospholipase C(PLC) to produce IP3 and DAG. IP3 can bind to the IP3 receptors on the endoplasmic reticulum and mitochondria in the cell, thereby causing the release of intracellular calcium. Therefore, measuring the changes in intracellular calcium can be used in the method to detect the activation state of hSSTR5. Fluo-4/AM is a calcium fluorescent probe indicator used to measure calcium ions. As a non-polar lipid-soluble compound, after it enters the cell, the AM group therein dissociates, and Fluo-4 is released under the action of cellular lipase; because Fluo-4 is a polar molecule and is not easy to pass through the lipid bilayer membrane, it can keep Fluo-4 in the cell fora longtime. Finally, the level of Ga protein activation can be reflected by measuring the intensity of the excited fluorescence. Somatostatin, an agonist of SSTR5, can activate SSTR5 receptors and greatly increase the calcium flow response. The SSTR5 antagonist to be tested can inhibit the agonist activity of the SSTR5 receptor and reduce the calcium increased flow response of the receptor stimulated by the agonist.
(§2) • (1) The hSSTR5-CHO-Gα16 and mSSTR5-CHO-Gα16 cell lines stably expressing hSSTR5 or mSSTR5 receptors were seeded at a density of 30,000/well in a 96-well plate and cultured in a 37° C. incubator overnight. • (2) The cells was aspirated off the culture medium, added with freshly prepared dye at 40 μL/well, and incubated in a 37° C. incubator for 45 minutes. • (3) After the dye was aspirated and discarded, the cells were washed with freshly prepared calcium buffer and the culture medium was replaced with 50 μL of calcium buffer. • (4) The SSTR5 agonist Somatostatin-14 was diluted and mixed evenly with calcium buffer. • (5) Detection was performed using a Flextation instrument. Starting from the 15th second, 25 μL of the pre-prepared agonist was automatically added by the instrument, and the fluorescence value at 525 nm was read.

In a further assay the target is T2, mSSTR5 (Mus musculus, UniProt O08858).
T2 construct: expressed in transfected cells; host or cells: CHO cells co-expressing Gα16 (mSSTR5-CHO-Gα16)
T2 sequence (O08858 1-362): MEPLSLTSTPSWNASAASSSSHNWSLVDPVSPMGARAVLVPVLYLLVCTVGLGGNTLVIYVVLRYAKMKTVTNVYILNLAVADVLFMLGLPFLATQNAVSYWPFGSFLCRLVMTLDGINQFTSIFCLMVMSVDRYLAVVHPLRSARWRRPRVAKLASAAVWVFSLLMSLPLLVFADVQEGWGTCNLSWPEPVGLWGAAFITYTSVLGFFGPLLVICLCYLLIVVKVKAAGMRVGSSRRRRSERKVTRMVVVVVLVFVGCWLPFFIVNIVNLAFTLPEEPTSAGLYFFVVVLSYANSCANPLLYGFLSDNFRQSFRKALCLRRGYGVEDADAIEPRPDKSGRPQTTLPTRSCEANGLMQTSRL
The assay can be described thus: SSTR5 antagonistic activity in vitro by calcium flow detection (mSSTR5-CHO-Gα16 cells). It is filed as cell-based. The following applies: 100 nM Somatostatin-14 agonist, Fluo-4 fluorescence 525 nm.
Text: as §1, §2

T1 sequence (P35346 whole entry): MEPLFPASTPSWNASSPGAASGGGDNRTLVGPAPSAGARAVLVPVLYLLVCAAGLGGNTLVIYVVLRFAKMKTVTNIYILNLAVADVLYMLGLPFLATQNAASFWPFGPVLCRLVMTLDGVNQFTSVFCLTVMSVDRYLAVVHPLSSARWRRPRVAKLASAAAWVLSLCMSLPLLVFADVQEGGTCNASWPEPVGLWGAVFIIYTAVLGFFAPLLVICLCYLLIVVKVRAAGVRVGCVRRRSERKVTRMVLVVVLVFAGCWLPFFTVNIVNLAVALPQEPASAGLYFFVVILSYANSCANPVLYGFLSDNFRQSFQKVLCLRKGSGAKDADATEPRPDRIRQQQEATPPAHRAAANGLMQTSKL

With `CCOc1cc(CN2CCC3(CCC(=O)N(c4ccc(C(=O)O)cc4)C3)CC2)cc(OCC)c1-c1ccc(F)cc1` [Example 1, 4-(9-((2,6-diethoxy-4′-fluoro-[1,1′-biphenyl]-4-yl)methyl)-3-oxo-2,9-diazaspiro[5.5]undec-2-yl)benzoic acid], on hSSTR5, the IC50 lay within 50 to 200 nM.
In the case of `CCOc1cc(CN2CCC3C(CCN3c3ccc(C(=O)O)cc3)C2)cc(OCC)c1-c1ccc(F)cc1` (stereo not drawn) [Example 2, 4-(5-((2,6-diethoxy-4′-fluoro-[1,1′-biphenyl]-4-yl)methyl)octahydro-1H-pyrrolo[3,2-c]pyridin-1-yl)benzoic acid], the IC50 on hSSTR5 lay within 0.1 to 50 nM; at mSSTR5, 50 to 200 nM. At hSSTR5, the “SSTR5 antagonistic activity (in words)” value is listed as “potent SSTR5 antagonistic activity”.
For the molecule `CCOc1cc(CN2CCC3(CC2)CCN(c2ccc(C(=O)O)cc2)C(=O)C3)cc(OCC)c1-c1ccc(F)cc1` [Example 3, 4-(9-((2,6-diethoxy-4′-fluoro-[1,1′-biphenyl]-4-yl)methyl)-2-oxo-3,9-diazaspiro[5.5]undec-3-yl)benzoic acid], the IC50 on hSSTR5 lay in the range of 50 to 200 nM.
For `CCOc1cc(CN2CCC(C3CN(c4ccc(C(=O)O)cc4)C3)CC2)cc(OCC)c1-c1ccc(F)cc1` [Example 4, 4-(3-(1-((2,6-diethoxy-4′-fluoro-[1,1′-biphenyl]-4-yl)methyl)piperidin-4-yl)azetidin-1-yl)benzoic acid], the half-inhibitory concentration (IC50) at hSSTR5 is 50 to 200 nM.
Same read-out and setting: for `CCOc1cc(CN2CCC3(CC2)CN(c2ccc(C(=O)O)cc2)CCO3)cc(OCC)c1-c1ccc(F)cc1` [Example 5] the value was 50 to 200 nM; for `CCOc1cc(CN2CC3(CC(Nc4ccc(C(=O)O)cc4)C3)C2)cc(OCC)c1-c1ccc(F)cc1` [Example 6, 4-((2-((2,6-diethoxy-4′-fluoro-[1,1′-biphenyl]-4-yl)methyl)-2-azaspiro[3.3]heptane-6-yl)amino)benzoic acid], more than 200 nM.
With `CCOc1cc(CN2CC3(CC(=O)N(c4ccc(C(=O)O)cc4)C3)C2)cc(OCC)c1-c1ccc(F)cc1` [Example 7, 4-(2-((2,6-diethoxy-4′-fluoro-[1,1′-biphenyl]-4-yl)methyl)-7-oxo-2,6-diazaspiro[3.4]octane-6-yl)benzoic acid], at hSSTR5, the IC50 was in the range of 0.1 to 50 nM and the “SSTR5 antagonistic activity (in words)” value is on record as “potent SSTR5 antagonistic activity”. In addition, the IC50 on mSSTR5 is 0.1 to 50 nM.
`CCOc1cc(CN2CC3(CC(=O)N(c4ccc(C(=O)O)cc4)C3)C2)c(C2CC2)cc1C` [Example 8, 4-(2-(2-cyclopropyl-5-ethoxy-4-methylbenzyl)-7-oxo-2,6-diazaspiro[3.4]octane-6-yl)benzoic acid]: on hSSTR5, the IC50 was in the range of 50 to 200 nM.
For `CCOc1ccc(C2CC2)c(CN2CC3(CC(=O)N(c4ccc(C(=O)O)cc4)C3)C2)c1` [Example 9, 4-(2-(2-cyclopropyl-5-ethoxybenzyl)-7-oxo-2,6-diazaspiro[3.4]octyl-6-yl)benzoic acid], on hSSTR5, the IC50 lay in the range of 50 to 200 nM.
In the case of `CCOc1cc(CN2CCC3(CC2)CN(c2ccc(C(=O)O)cc2)C3)cc(OCC)c1-c1ccc(F)cc1` [Example 10, 4-(7-((2,6-diethoxy-4′-fluoro-[1,1′-biphenyl]-4-yl)methyl)-2,7-diazaspiro[3.5]nonan-2-yl)benzoic acid], at hSSTR5, the 50% inhibitory concentration (IC50) fell in the range of 0.1 to 50 nM and the “SSTR5 antagonistic activity (in words)” value is on record as “potent SSTR5 antagonistic activity”. Further, the IC50 at mSSTR5 lay within 0.1 to 50 nM.
Take `CCOc1cc(CN2CCC3(CC2)CC(NS(=O)(=O)c2ccc(OC(F)(F)F)cc2)C3)cc(OCC)c1-c1ccc(F)cc1` [Example 11, N-(7-((2,6-diethoxy-4′-fluoro-[1,1′-biphenyl]-4-yl)methyl)-7-azaspiro[3.5]nonan-2-yl)-4-(trifluoromethoxy)benzenesulfonamide]: the concentration for half-maximal inhibition (IC50) at hSSTR5 fell in the range of 50 to 200 nM; on mSSTR5, 0.1 to 50 nM.
Turning to `CCOc1cc(CN2CCN(C3CCN(S(=O)(=O)c4ccc(OC(F)(F)F)cc4)CC3)CC2)cc(OCC)c1-c1ccc(F)cc1` [Example 12, 1-((2,6-diethoxy-4′-fluoro-[1,1′-biphenyl]-4-yl)methyl)-4-(1-((4-(trifluoromethoxy)phenyl)sulfonyl)piperidin-4-yl)piperazine], the IC50 at hSSTR5 and on mSSTR5 was 0.1 to 50 nM throughout. The “SSTR5 antagonistic activity (in words)” value at hSSTR5 was “potent SSTR5 antagonistic activity”.
Regarding `CCOc1cc(CN2CCC(N3CCN(S(=O)(=O)c4ccc(OC(F)(F)F)cc4)CC3)CC2)cc(OCC)c1-c1ccc(F)cc1` [Example 13], the IC50 on hSSTR5 is more than 200 nM.
Same read-out and setting: in the case of `CCOc1cc(CN2CCN(C3CCN(S(=O)(=O)c4ccc(C(=O)O)cc4)CC3)CC2)cc(OCC)c1-c1ccc(F)cc1` [Example 15, 4-((4-(4-((2,6-diethoxy-4′-fluoro-[1,1′-biphenyl]-4-yl)methyl)piperazin-1-yl)piperidin-1-yl)sulfonyl)benzoic acid] it was more than 200 nM.
In the case of `CCOc1cc(CN2CCN(S(=O)(=O)c3ccc(OC(F)(F)F)cc3)CC2)cc(OCC)c1-c1ccc(F)cc1` [Example 16, 1-((2,6-diethoxy-4′-fluoro-[1,1′-biphenyl]-4-yl)methyl)-4-((4-(trifluoromethoxy)phenyl)sulfonyl)piperazine], the IC50 at hSSTR5 was more than 200 nM.
The same measure, in the same setting: for `CCOc1cc(CN2CCN(S(=O)(=O)c3ccc(C(=O)O)cc3)CC2)cc(OCC)c1-c1ccc(F)cc1` [Example 17, 4-((4-((2,6-diethoxy-4′-fluoro-[1,1′-biphenyl]-4-yl)methyl)piperazin-1-yl)sulfonyl)benzoic acid] the value was 50 to 200 nM.
With `CCOc1cc(CN2CCC3(CC2)CN(c2ccc(C(=O)O)cc2)C3=O)cc(OCC)c1-c1ccc(F)cc1` [Example 18, 4-(7-((2,6-diethoxy-4′-fluoro-[1,1′-biphenyl]-4-yl)methyl)-1-oxo-2,7-diazaspiro[3.5]nonan-2-yl)benzoic acid], on hSSTR5, the IC50 lay within 0.1 to 50 nM and the “SSTR5 antagonistic activity (in words)” value is on record as “potent SSTR5 antagonistic activity”.
The corresponding values for `CCOc1cc(CN2CCC3(CC2)CN(c2ccc(C(=O)O)cc2)C3)c(C2CC2)cc1C` [Example 19, 4-(7-(2-cyclopropyl-5-ethoxy-4-methylbenzyl)-2,7-diazaspiro[3,5]nonan-2-yl)benzoic acid] are 0.1 to 50 nM and “potent SSTR5 antagonistic activity”.
For `CCOc1cc(CN2CCC3(CC2)CN(c2ccc(C(=O)O)cc2)C3)c(-c2ccc(F)c(F)c2F)cc1C` [Example 20, 4-(7-((4-ethoxy-2′,3′,4′-trifluoro-5-methyl-[1,1′-biphenyl]-2-yl)methyl)-2,7-diazaspiro[3,5]nonan-2-yl)benzoic acid], at hSSTR5, the IC50 is 50 to 200 nM.
Turning to `CCOc1cc(CN2CC3(CC(=O)N(c4ccc(C(=O)O)cc4)C3)C2)ccc1F` [Example 21, 4-(2-(3-ethoxy-4-fluorobenzyl)-7-oxy-2,6-diazaspiro[3.4]octan-6-yl)benzoic acid], the IC50 at hSSTR5 was more than 200 nM.
On the same count and under the same terms, in the case of `CCOc1cc(CN2CC3(CC(=O)N(c4ccc(C(=O)O)cc4)C3)C2)ccc1C` [Example 22, 4-(2-(3-ethoxy-4-methylbenzyl)-7-oxy-2,6-diazaspiro[3.4]octan-6-yl)benzoic acid] it was more than 200 nM; in that of `O=C(O)c1ccc(N2CC3(CC2=O)CN(Cc2cc(C(F)(F)F)ccc2C2CC2)C3)cc1` [Example 23, 4-(2-(2-cyclopropyl-5-(trifluoromethyl)benzyl)-7-oxo-2,6-diazaspiro[3.4]octyl-6-yl)benzoic acid], more than 200 nM.
Same read-out and setting: for `CCOc1cc(CN2CCC3(CC2)CN(c2ccc(C(=O)O)cc2)C3)ccc1F` [Example 24, 4-(7-(3-ethoxy-4-fluorobenzyl)-2,7-diazaspiro[3.5]nonan-2-yl)benzoic acid] the value was 50 to 200 nM; for `CCOc1cc(CN2CCC3(CC2)CN(c2ccc(C(=O)O)cc2)C3)ccc1N(CC)CC` [Example 25, 4-(7-(4-(diethylamino)-3-ethoxybenzyl)-2,7-diazaspiro[3.5]nonan-2-yl)benzoic acid], 50 to 200 nM.
The same measure, in the same setting: in the case of `CCOc1cc(CN2CC3(CC(=O)N(c4ccc(C(=O)O)cc4)C3)C2)ccc1O` [Example 26, 4-(2-(3-ethoxy-4-hydroxybenzyl)-7-oxo-2,6-diazaspiro[3.4]octyl-6-yl)benzoic acid] it was more than 200 nM.
